Values of other authors in patent publication US11311608B2, “Methods for treating breast and other cancers by targeting argininosuccinate synthetase 1-deficiency” (CITY OF HOPE, priority 2013, dated 2022).

Conditions: versus arginase

Arginine deiminase
effectiveness at depleting arginine from the environment relative to arginase: 300 fold
